We go through 87 compounds from ChEMBL document CHEMBL1157539, “Thousands of chemical starting points for antimalarial lead identification” (Nature, 2010).

The test system of the assay is Plasmodium falciparum. As to the kind of experiment: GSK_TCMDC: Inhibition of Plasmodium falciparum 3D7 in whole erythrocytes, using parasite LDH activity as an index of growth. The assay is classed as functional, organism-based. As to conditions: Plasmodium falciparum, 3D7.
On to `CCN(CC)CCN(Cc1ccc(-c2ccc(C(F)(F)F)cc2)cc1)C(=O)Cn1cc(Cc2cnn(C)c2)c(=O)n2nc(-c3ccccc3)cc12`, for which the XC50 came to 730 nM.

Take `CCCCCOc1ccc(/N=C2\C=C(O)C(=O)c3ccccc32)cc1`: the XC50 was 243 nM.

Regarding `CS(=O)(=O)c1ccc(-c2nc(NCC3CCCCC3)cc(C(F)(F)F)n2)cc1`, the XC50 stood at 667 nM. `COc1cccc2c(Nc3ccccc3C)nc(Nc3ccccc3C)nc12` gave an XC50 of 679 nM.

Turning to `OC(CNCc1ccccc1OCc1ccccc1)c1cc(C(F)(F)F)cc(C(F)(F)F)c1` (configuration not stated), the XC50 worked out at 134 nM. `CCc1cn2c3c(cc(C(=O)N[C@@H](Cc4ccccc4)[C@H](O)CNCc4ccccc4)cc13)N(C)S(=O)(=O)CC2` yielded an XC50 of 664 nM.

For `CN1CCC(NCc2ccc(-c3ccc(Cl)cc3)cc2)CC1`, the XC50 came to 750 nM. Turning to `CCc1cn2c3c(cc(C(=O)N[C@@H](Cc4ccccc4)[C@H](O)CNC4CCOCC4)cc13)N(CC(F)(F)F)S(=O)(=O)CC2`, the XC50 amounted to 29.6 nM.

For the compound `CCCc1cc(C)ccc1OCCCON1C(N)=NC(N)=NC1(C)C`, the XC50 amounted to 3.2 nM. `OCCC1CCN(Cc2ccc(-c3ccc(-c4nc5ccccc5[nH]4)cc3)cc2)CC1` had an XC50 of 768 nM. On to `CC(C)c1cc(Oc2c(I)cc(CCNCc3ccccc3)cc2I)ccc1O`, for which the XC50 was found to be 536 nM. In turn, `CCCC(C)Nc1nc(C)cc(N[C@@H](Cc2ccccc2)C(=O)NCc2ccc(C)cc2)n1` (some centres not stated) yielded an XC50 of 1120 nM. For `COc1ccc2nccc([C@@H](O)CN3CCC(NCc4nc5cc(F)cc(F)c5[nH]4)CC3)c2c1` the value was 573 nM; for `CCN1CCN(Cc2c(O)ccc3c(=O)c(Oc4cc(C)cc(C)c4)c(C(F)(F)F)oc23)CC1`, 773 nM. For the compound `CC[C@H](C)[C@H](NC(=O)[C@H](CC1CCCCC1)[C@H](CC)N(O)C=O)C(=O)Nc1ccccn1`, the XC50 was determined as 176 nM.

As to `CCCCOC(=O)C1=C(C)NC2=C(C(=O)CC(c3ccc(OC)c(OC)c3)C2)C1c1ccc(O)cc1` (configuration not stated), the XC50 was 834 nM.

On to `COc1cc(C(=O)NC2CCN(Cc3ccccc3)CC2)ccc1-c1cc2cc(Cl)c(Cl)cc2[nH]1`, for which the XC50 was 227 nM. The compound `COc1ccc(-c2cc(-c3nc4cc(CN)ccc4[nH]3)c(=O)n(C)c2)cc1OC` yielded an XC50 of 1400 nM.

The compound `O=C(NCc1ccc(C(=O)N2CCC(N3CCCCC3)CC2)cc1)c1cc(-c2cccc(C(F)(F)F)c2)ccc1O` registered an XC50 of 817 nM. `CC(C)Cn1cc(C2CCN(CCN3CCC(CNC(=O)c4ccc(NC(=O)c5ccc(Cl)cc5)cc4)CC3)CC2)c2ccccc21` displayed an XC50 of 251 nM.

On to `O=C(Nc1ccc(-c2ccc(-c3nc4ccccc4[nH]3)s2)cc1)c1ccncc1`, for which the XC50 was 789 nM. On to `NC(=O)c1cccc(CNCc2ccc(-c3cccc(-c4nc5ccccc5[nH]4)c3)cc2)c1`, for which the XC50 was 592 nM.

Take `COc1ccc2nc(C)cc(Nc3ccc(Cl)cc3)c2c1`: the XC50 was found to be 946 nM. Consider `O=S(=O)(c1ccccc1)C1CC1`, for which the XC50 worked out at 724 nM.

Compound `Clc1ccc2c(NCc3ccccc3)ccnc2c1` yielded an XC50 of 339 nM. Regarding `CC(C)(C)c1ccc(CNC(=O)c2ccc(CNC3CCC(N)CC3)s2)cc1` (configuration not stated), the XC50 stood at 531 nM. Regarding `O=C(Nc1cccc(OCc2ccccc2)c1)c1ccc(CN2CCC(Cc3ccccc3)CC2)cc1`, the XC50 was determined as 850 nM. Consider `COc1cc(OC)cc(C(=O)Nc2cccc(-c3cn4ccc(C)cc4n3)c2)c1`, for which the XC50 was 994 nM. Compound `COc1cccc2c(NN=Cc3cccc(Cl)c3)cc(C)nc12` showed an XC50 of 709 nM.

For the compound `CCOc1cc(CC)ccc1C1CCN(CCN2CCC(NC(=O)c3ccc(-c4ccc(C(C)=O)cc4)cc3)CC2)CC1`, the XC50 worked out at 226 nM. For `COc1cc(C(=O)N2CCOC(CCN3CCC(c4ccc(Cl)cc4)CC3)(c3ccc(Cl)c(Cl)c3)C2)cc(OC)c1OC` (configuration not stated) the value was 179 nM; for `Nc1nccc2ccc(-c3ccc(OCc4ccccc4)cc3)cc12`, 222 nM; for `COc1ccc2nccc([C@@H](O)CN3CCC(NCc4ccc(OC)c(NC(C)=O)c4)CC3)c2c1`, 835 nM. `Nc1ccc(-c2ccc(NC(=O)Nc3ccccc3)cc2)cn1` gave an XC50 of 920 nM. As for `CN1CCC(NCc2ccc(-c3ccc(C(F)(F)F)cc3)cc2)CC1`, the XC50 was 798 nM.

Regarding `O=C(/C=C/c1ccc(Cl)c(Cl)c1)NCCCCCCN1CCCN(C(=O)Nc2ccc(F)c(F)c2)CC1`, the XC50 was 1240 nM. `COc1cccc(C(=O)Nc2ccc(Oc3ccc(Cl)cc3)cc2)c1` returned an XC50 of 956 nM. In the case of `Nc1ccncc1C(=O)NCCCCN1CCN(c2nsc3ccccc23)CC1`, the XC50 is 803 nM. `CNC(=O)c1ccc2[nH]cc(C3CCN(CC4CCN(C(=O)/C=C/c5ccc(Cl)c(Cl)c5)CC4)CC3)c2c1` returned an XC50 of 1520 nM. In turn, `c1ccc(C(c2ccccc2)N2CCC(NCc3ccc(OCCCN4CCCCC4)cc3)CC2)cc1` yielded an XC50 of 557 nM. In the case of `O=C(NCC1CCN(Cc2cccc(C(F)(F)F)c2)C1)c1cc(-c2cccc(Cl)c2)cs1` (configuration not stated), the XC50 is 803 nM.

Take `CCCN(CCC)CCCCC(C)Nc1c2ccc(Cl)cc2nc2ccc(OC)cc12` (configuration not stated): the XC50 was determined as 137 nM. Take `CCCc1ccc(N2C(N)=NC(N)=NC2(C)C)cc1`: the XC50 was 28.4 nM. The compound `CCCC(C(=O)OCCNC)(c1ccccc1)c1ccccc1` displayed an XC50 of 889 nM. On to `COc1ccc(CC2(c3ccc(F)cc3)N=C(N)N(CCCc3ccccc3)C2=O)cc1` (configuration not stated), for which the XC50 was determined as 613 nM. In turn, `Cc1ccc2c(c1)NCC21CCN(C[C@@H](O)C2CCN(c3ccnc(Cl)c3)CC2)CC1C` (some centres not stated) gave an XC50 of 940 nM.

On to `FC(F)(F)c1ccc2[nH]c(-c3cccc(-c4ccc(CNCc5cnn(-c6ccccc6)n5)cc4)c3)nc2c1`, for which the XC50 turned out to be 1330 nM.

Regarding `COc1cc2c(cc1C=CC(=O)N1CCN(Cc3nc(O)c4c(C)c(C)sc4n3)CC1)OC(C)C2` (configuration not stated), the XC50 came to 1020 nM. `CC(CN1CCN(C)CC1)C(=O)Nc1cccc(-c2cccc(-c3nc4cc(F)ccc4[nH]3)c2)c1` (configuration not stated): the XC50 came out at 274 nM. For `COc1ccc(CN2CCCN(Cc3cccc(NC(=O)c4cc5ccccc5s4)c3)CC2)cc1` the value was 842 nM; for `COc1ccc(CNC(=O)NC2CCN(c3ccnc(Nc4cc(OC)c(OC)c(OC)c4)n3)C2)cc1` (configuration not stated), 946 nM; for `N=C(Nc1cccc(Cc2ccccc2)n1)Nc1ncccn1`, 928 nM. `c1cc(OCCN2CCCC2)ccc1CNC1CCN(CC2CCCCC2)CC1` showed an XC50 of 845 nM. `CC[C@H](C)CNC(=O)c1ccnc(-c2ccc(CNCCCc3ccccc3)cc2)c1` showed an XC50 of 1230 nM. Consider `Nc1nccc2ccc(-c3ccc(NC(=O)Nc4cc(C(F)(F)F)ccc4F)cc3)cc12`, for which the XC50 was found to be 86.3 nM. As for `CNCc1ccc(-c2cccc(CNCc3ccc(-c4ccccc4)cc3)c2)c(C(=O)OC)c1`, the XC50 is 980 nM. On to `COc1cc(NCC(O)CNc2cc(OC)c3ccccc3n2)nc2ccccc12`, for which the XC50 was found to be 109 nM. As to `O=C(NCc1ccc(Cl)cc1)c1ccc(CN2CCCN(Cc3cccc(O)c3)CC2)cc1`, the XC50 worked out at 1170 nM.

The compound `Clc1ccc2nc(-c3cccnc3)[nH]c2c1` displayed an XC50 of 38.4 nM.

Regarding `Cc1ccc(Nc2nccc(NCC(O)c3cccc(C(F)(F)F)c3)n2)cc1` (configuration not stated), the XC50 was 677 nM. The compound `Cc1cc2nc(-c3cc(Br)ccc3O)c(-c3cc(Br)ccc3O)nc2cc1C` came in with an XC50 of 853 nM. In turn, `CCCC(=O)Nc1ccc(OCCCN(Cc2ccccc2F)c2ccc(C#N)c(C(F)(F)F)c2)cc1` returned an XC50 of 595 nM. With `COc1cc2c(cc1NS(=O)(=O)c1ccc(OCc3ccc(Br)cc3)cc1)CCN(C1CCC1)CC2`, the XC50 was 843 nM. `COc1cc2nc(NCCCN3CCCCC3)nc(NCc3ccccc3)c2cc1OC` showed an XC50 of 998 nM. Consider `O=S(=O)(c1ccc(OCc2ccc(Cl)cc2)cc1)c1cc2c(c(-c3ccc(F)cc3)c1)CCN(CC1CC1)CC2`, for which the XC50 came to 1120 nM. For `c1ccc(-c2ccc3c(Nc4ccc5[nH]ccc5c4)ccnc3c2)nc1` the value was 943 nM; for `CCCCNCc1ccc(-c2nc(CN(CCCn3ccnc3)C(=O)Nc3ccc(CC)cc3)cs2)cc1`, 830 nM. The compound `Cc1cccc2nc(-c3cccc(-c4ccc(NC(=O)c5cccnc5)cc4)c3)[nH]c12` yielded an XC50 of 594 nM. In turn, `CC(=O)NCCNc1nccc(N2CCc3ncnc(Nc4ccc(OCc5cccc(F)c5)c(Cl)c4)c3C2)n1` yielded an XC50 of 129 nM. `CCCCCCNc1cc(C)nc2ccc(OC)cc12` yielded an XC50 of 552 nM.

`O=c1cc(NCCCNCc2cc(C(F)(F)F)ccc2F)[nH]c2ccccc12` displayed an XC50 of 829 nM.

For the compound `Cc1cccc2nc(-c3ccc(-c4ccc(CN5CCN(c6cnccn6)CC5)cc4)s3)[nH]c12`, the XC50 worked out at 750 nM. As for `O=C(Nc1cc(Cl)cc(Cl)c1)N[C@H]1CCN(CCCCCNC(=O)C2CC2c2ccc(Cl)c(Cl)c2)C1` (some centres not stated), the figure is 856 nM; as for `CSc1cccc(Nc2nc3ccc(S(=O)(=O)NCC(C)C)cc3n2C(C)C(C)C)c1` (configuration not stated), 824 nM. `Fc1ccc(CN2CCN(c3ncnc4cc(-c5ccccc5)sc34)CC2)cc1` came in with an XC50 of 1020 nM. Compound `CCOc1ccc(OCC)c(N2CCN(CCCCNC(=O)c3ccc(NC(=O)c4ccc(Cl)cc4)cc3)CC2)c1` registered an XC50 of 587 nM. In turn, `Cc1ccc(-n2c(Sc3ncnc4sccc34)nnc2N2CCCC2)cc1` came in with an XC50 of 263 nM. On to `O=C(Nc1ccc(OC2CCN(Cc3ccccc3)CC2)c(Cl)c1)c1ccco1`, for which the XC50 worked out at 408 nM. Consider `Cc1cccc2nc(-c3cccc(-c4cccc(NC(=O)c5cccnc5)c4)c3)[nH]c12`, for which the XC50 amounted to 228 nM.

In turn, `CN(C)Cc1cccc(-c2cc3c(-c4cnn(C)c4)c(Cl)cnc3[nH]2)c1` came in with an XC50 of 905 nM. In turn, `O=C(Nc1ccc(N2CCN(Cc3ccccc3)CC2)cc1)c1cccs1` yielded an XC50 of 769 nM. Compound `CN1CCC(C(=O)Nc2cccc(-c3ccc(-c4nc5cc(F)ccc5[nH]4)cc3)c2)CC1` had an XC50 of 706 nM. As for `Cc1cc(C=C2SC(=Nc3ccccc3)N(C3CCCC3)C2=O)c(C)n1-c1ccc(Cl)cc1`, the figure is 876 nM; as for `C[C@@]12C[C@@H](Nc3nc(NCCc4ccc(O)cc4)nc(N4CCNCC4)n3)C[C@@H](C1)c1cccc(Cl)c1O2`, 1320 nM; as for `Cc1c(F)cc(C(=O)NC2CC2)cc1-c1ccc2c(cnn2S(=O)(=O)c2ccc(C#N)cc2)c1`, 100 nM. In turn, `O=C(Nc1ccc(Cl)cc1C(=O)Nc1ccncc1)c1ccc(Cl)cc1Cl` had an XC50 of 611 nM. As for `Nc1nc(N)c2c(n1)CCC(c1ccccc1)C2` (configuration not stated), the XC50 is 1010 nM.
